Laboratory results: patent US5021430A, “Certain N-substituted butyramide derivatives” (Ciba-Geigy Corporation, priority 1987, dated 1991)

Target: T1, enkephalinase (Rattus norvegicus, UniProt P07861)
T1 construct: synaptic membrane preparation from rat striatum; from tissue; host or cells: rat striatum, synaptic membrane preparation
T1 sequence (P07861 1-750): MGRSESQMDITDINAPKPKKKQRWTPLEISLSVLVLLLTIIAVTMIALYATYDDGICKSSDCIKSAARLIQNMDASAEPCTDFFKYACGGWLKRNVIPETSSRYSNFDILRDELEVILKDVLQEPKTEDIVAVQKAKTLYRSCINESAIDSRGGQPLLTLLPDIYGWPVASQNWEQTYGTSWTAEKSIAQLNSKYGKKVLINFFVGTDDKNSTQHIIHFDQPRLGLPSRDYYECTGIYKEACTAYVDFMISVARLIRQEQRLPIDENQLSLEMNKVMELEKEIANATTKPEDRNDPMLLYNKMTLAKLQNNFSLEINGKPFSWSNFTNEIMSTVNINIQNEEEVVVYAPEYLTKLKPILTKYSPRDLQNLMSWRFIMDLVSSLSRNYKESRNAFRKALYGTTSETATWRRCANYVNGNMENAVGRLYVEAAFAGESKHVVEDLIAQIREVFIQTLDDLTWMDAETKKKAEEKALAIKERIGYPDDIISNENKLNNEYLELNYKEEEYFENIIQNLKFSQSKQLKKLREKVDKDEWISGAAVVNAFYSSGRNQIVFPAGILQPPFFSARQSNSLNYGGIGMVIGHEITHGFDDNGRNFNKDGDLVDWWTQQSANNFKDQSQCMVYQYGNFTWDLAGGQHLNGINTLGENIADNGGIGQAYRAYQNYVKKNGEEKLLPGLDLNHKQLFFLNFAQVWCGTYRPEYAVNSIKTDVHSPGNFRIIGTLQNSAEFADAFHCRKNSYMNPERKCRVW
Experiment: enkephalinase inhibitory activity in vitro (inhibition of 3H-Tyr-gly-gly generation from 3H-Leu-enkephalin)
Format: biochemical
Details: rat striatum synaptic membrane preparation, pH 6.5, 3H-Leu-enkephalin, 15 minutes at 30° C., 10^-6 M Bestatin
Protocol: The enkephalinase inhibitory activity is determined in vitro by an adaptation of the method of Alstein et al. as described in Life Sciences 28, 185 (1981), as follows:
A mixture of a solution of the test compound in distilled water or distilled water and ethanol diluted with pH 6.5 buffer and of a synaptic membrane preparation from rat striatum is incubated at pH 6.5 with ^3 H-Leu-enkephalin for 15 minutes at 30° C., in the presence of 10^-6 M Bestatin (to inhibit aminopeptidase activity). The reaction is stopped by the addition of 30% acetic acid and the reaction product ^3 H-Tyr-gly-gly is separated from unreacted ^3 H-Leu-enkephalin on a Porapak O column followed by a Cu^++-chelex column. The ^3 H-Tyr-gly-gly is counted by liquid scintillation. The amount of ^3 H-Tyr-gly-gly generated in the presence of test compound as compared to control is then calculated. An IC50 value representing the concentration of test compound required for 50% inhibition of ^3 H-Tyr-gly-gly generation is then determined graphically.

IC50	IC50 (unit inferred)	SMILES
~5 nM		O=C(O)[C@H](Cc1ccccc1)C[C@@H](Cc1ccccc1)C(=O)N[C@@H](CCc1ccccc1)C(=O)O [N-[(S,S)-2,4-dibenzyl-4-carboxybutyryl]-(L)-homophenylalanine]
	~4 nM	O=C(O)[C@H](Cc1ccccc1)C[C@@H](Cc1ccccc1)C(=O)N[C@@H](COCc1ccccc1)C(=O)O [N-[(S,S)-2,4-dibenzyl-4-carboxybutyryl]-O-benzyl-(L)-serine]
~6 nM		O=C(O)[C@H](Cc1ccccc1)C[C@@H](Cc1ccccc1)C(=O)N[C@@H](CSCc1ccccc1)C(=O)O [N-[(S,S)-2,4-dibenzyl-4-carboxybutyryl]-S-benzyl-(L)-cysteine]
